These molecules were tested against ROCK2 (human) (UniProt O75116) (assay: Assessment of ROCK2 Kinase Activity).
Sequence of ROCK2 (human) (O75116 whole entry, looked up): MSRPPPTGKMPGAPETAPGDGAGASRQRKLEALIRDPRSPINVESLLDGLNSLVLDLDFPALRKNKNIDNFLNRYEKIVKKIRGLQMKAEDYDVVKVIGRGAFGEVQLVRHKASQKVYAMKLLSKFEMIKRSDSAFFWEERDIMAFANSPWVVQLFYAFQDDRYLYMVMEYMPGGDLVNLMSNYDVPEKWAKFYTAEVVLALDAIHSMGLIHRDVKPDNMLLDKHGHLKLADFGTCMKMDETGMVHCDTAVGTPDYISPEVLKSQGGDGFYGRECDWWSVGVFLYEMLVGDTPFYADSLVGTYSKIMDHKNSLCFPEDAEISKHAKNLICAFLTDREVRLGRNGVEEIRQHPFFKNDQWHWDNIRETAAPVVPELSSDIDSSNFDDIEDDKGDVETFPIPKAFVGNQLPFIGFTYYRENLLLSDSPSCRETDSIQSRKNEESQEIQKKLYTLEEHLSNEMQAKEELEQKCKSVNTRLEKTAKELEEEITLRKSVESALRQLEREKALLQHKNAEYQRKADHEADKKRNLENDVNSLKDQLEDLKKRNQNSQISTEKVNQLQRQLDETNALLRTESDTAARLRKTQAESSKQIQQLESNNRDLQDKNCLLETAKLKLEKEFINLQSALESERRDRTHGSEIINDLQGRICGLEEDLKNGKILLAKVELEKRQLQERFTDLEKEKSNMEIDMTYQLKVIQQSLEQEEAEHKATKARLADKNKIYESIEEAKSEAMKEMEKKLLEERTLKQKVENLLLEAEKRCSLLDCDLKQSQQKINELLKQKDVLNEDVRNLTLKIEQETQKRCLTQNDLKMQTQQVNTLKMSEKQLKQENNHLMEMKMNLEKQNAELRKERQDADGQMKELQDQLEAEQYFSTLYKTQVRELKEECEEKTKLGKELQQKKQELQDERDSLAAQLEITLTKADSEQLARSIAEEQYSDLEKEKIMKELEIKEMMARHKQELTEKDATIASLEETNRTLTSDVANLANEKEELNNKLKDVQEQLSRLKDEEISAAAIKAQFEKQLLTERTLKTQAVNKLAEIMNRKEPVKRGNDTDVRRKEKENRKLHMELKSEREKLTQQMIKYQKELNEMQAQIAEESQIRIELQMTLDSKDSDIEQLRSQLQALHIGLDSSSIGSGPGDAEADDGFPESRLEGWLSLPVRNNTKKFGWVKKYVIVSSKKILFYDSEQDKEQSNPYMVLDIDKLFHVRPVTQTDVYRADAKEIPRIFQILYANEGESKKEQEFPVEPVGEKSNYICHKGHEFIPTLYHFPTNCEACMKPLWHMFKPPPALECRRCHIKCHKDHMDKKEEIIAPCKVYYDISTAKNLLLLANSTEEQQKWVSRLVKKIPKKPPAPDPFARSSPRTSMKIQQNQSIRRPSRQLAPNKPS

Compound | IC50
O=C(NCc1cccc(F)c1)Nc1ccc(-c2cn[nH]c2)cc1 | 3 nM
COc1cccc(CNC(=O)Nc2ccc(-c3ncnc4[nH]ccc34)cc2)c1 | 188 nM
COc1cccc(CNC(=O)Nc2ccc(-c3cn[nH]c3)cc2OCCN(C)C)c1 | < 1 nM
COc1cccc(CNC(=O)Nc2ccc(-c3cn[nH]c3)cc2F)c1 | < 1 nM
COc1cccc(CNC(=O)Nc2ccc(-c3cn[nH]c3)cc2OCCN2CCCC2)c1 | < 1 nM
COc1cccc(CNC(=O)Nc2ccc(-c3ccncc3)cc2)c1 | 5 nM
COc1cccc(CNC(=O)Nc2ccc(-c3cn[nH]c3)cc2N(C)C)c1 | < 1 nM
COc1cccc(CNC(=O)Nc2ccc(-c3cn[nH]c3)cc2OC)c1 | < 1 nM
COc1cccc(CNC(=O)Nc2ccc(-c3ccnc(N)n3)cc2)c1 | 13 nM
COc1cccc(CNC(=O)Nc2ccc(-c3cn[nH]c3)cc2Cl)c1 | < 1 nM
COc1cccc(CNC(=O)Nc2ccc(-c3cn[nH]c3)cc2)c1 | 2 nM
COc1cccc(CN(C)C(=O)Nc2ccc(-c3cn[nH]c3)cc2N(C)CCN(C)C)c1 | 8 nM
COc1cccc(CN(C)C(=O)Nc2ccc(-c3cn[nH]c3)cc2OCCN2CCCC2)c1 | < 1 nM
COc1cccc(CNC(=O)Nc2ccc(-c3cn[nH]c3)cc2N(C)CCN(C)C)c1 | < 1 nM
COc1ccccc1CNC(=O)Nc1ccc(-c2cn[nH]c2)cc1 | 26 nM
COc1cccc(CNC(=O)Nc2ccc(-c3c[nH]nc3C)cc2)c1 | 2 nM
CCN(Cc1cccc(OC)c1)C(=O)Nc1ccc(-c2cn[nH]c2)cc1OCCN1CCCC1 | < 1 nM
COc1ccc(CNC(=O)Nc2ccc(-c3cn[nH]c3)cc2)cc1 | 2750 nM
O=C(NCc1ccccc1)Nc1ccc(-c2cn[nH]c2)cc1 | 18 nM
CCN(Cc1cccc(OC)c1)C(=O)Nc1ccc(-c2cn[nH]c2)cc1N(C)CCN(C)C | 6 nM
Nc1cccc(CNC(=O)Nc2ccc(-c3cn[nH]c3)cc2)c1 | 3 nM
COc1cccc(CN(C)C(=O)Nc2ccc(-c3cn[nH]c3)cc2OCCN(C)C)c1 | < 1 nM
O=C(NCc1cccc(Cl)c1)Nc1ccc(-c2cn[nH]c2)cc1 | 17 nM
Cc1cccc(CNC(=O)Nc2ccc(-c3cn[nH]c3)cc2)c1 | 33 nM
CCN(Cc1cccc(OC)c1)C(=O)Nc1ccc(-c2cn[nH]c2)cc1OCCN(C)C | 3 nM
COc1cccc(CNC(=O)Nc2ccc(-c3ccnc(N)c3)cc2)c1 | 44 nM
